For assay [1], the system named is Pseudomonas aeruginosa. Description: Turbidity test of amikacin eluates for bactericidal activity. In kind it is cell-based. To be noted: amikacin eluates from constructs against Pseudomonas aeruginosa. The protocol: (§1) Eluates taken from constructs of these different types were tested for bactericidal activity in turbidity tests against appropriate strains of bacteria: amikacin eluates against Pseudomonas aeruginosa and vancomycin eluates against Staphylococcus aureus. Eluates were added to trypticase soy broth in a 1:10 dilution. Broth was then inoculated with bacteria and then incubated overnight at 37° C. Absorbance of these solutions (turbidity) was used as an indicator of bacterial growth. Percent inhibition of bacterial growth is calculated from these measurements.

Assay [2] concerns Staphylococcus aureus. The experiment in a line: Turbidity test of vancomycin eluates for bactericidal activity. In kind it is cell-based. To be noted: vancomycin eluates from constructs against Staphylococcus aureus. The procedure: as §1

Consider `NCC[C@H](O)C(=O)N[C@@H]1C[C@H](N)[C@@H](O[C@H]2O[C@H](CN)[C@@H](O)[C@H](O)[C@H]2O)[C@H](O)[C@H]1O[C@H]1O[C@H](CO)[C@@H](O)[C@H](N)[C@H]1O` [amikacin], for which the “time up to which elution is inhibitory” value in assay [1] is recorded as “up to 24 hours”.

With `CN[C@H](CC(C)C)C(=O)N[C@H]1C(=O)N[C@@H](CC(N)=O)C(=O)N[C@H]2C(=O)N[C@H]3C(=O)N[C@H](C(=O)N[C@H](C(=O)O)c4cc(O)cc(O)c4-c4cc3ccc4O)[C@H](O)c3ccc(c(Cl)c3)Oc3cc2cc(c3O[C@@H]2O[C@H](CO)[C@@H](O)[C@H](O)[C@H]2O[C@H]2C[C@](C)(N)[C@H](O)[C@H](C)O2)Oc2ccc(cc2Cl)[C@H]1O` [vancomycin], in assay [2], the “time up to which elution is inhibitory” value is given as “up to 48 hours”.

The values are drawn from US20100266694A1, “Chitosan/Carbon Nanotube Composite Scaffolds for Drug Delivery” (priority 2009, published 2010).
